Test results as given in US20230174938A1, “METHODS AND COMPOSITIONS FOR GENERATING HUMAN ERYTHROID PROGENITOR CELLS” (Trailhead Biosystems Inc., priority 2021, published 2023).

What was measured:
[1] = tested on: GATA1 bipotential progenitor (MEP progenitor) from human cord blood CD34+ cells; assay: HD-DoE 12-factor experiment optimized for maximum expression of HBA1 (stage 2); assay type: cell-based; settings: 12-factor model optimized for maximum HBA1 expression; 3 days after stage 1
Method: To engineer the stage 2 media, first CD34+ cells from human cord blood cells were cultured for 5 days in stage 1 media (Table 1), which converts hematopoietic stem cells to a GATA1 bipotential progenitor (MEP progenitor). This progenitor has the potential to differentiate to erythroid and megakaryocyte lineages. To further guide the differentiation of GATA1 bipotential progenitor, an additional HD-DoE experiment was performed. […] The basis of this was a 12-factor HD-DoE experiment with focus on differentiation of cells toward the erythroid lineage for an additional 3 days after termination of stage 1 treatment.
To test the effectors, 96 different combinations of effectors generated using Design-of-Experiments compression through D-optimality were robotically prepared. The effector combinations were prepared in a basal media and were subsequently added to the cells, which were then allowed to differentiate. Three days later RNA extraction was performed, and gene expression was obtained using quantitative PCR analysis. The data were normalized and modeled using partial least squares regression analysis to the effector design, resulting in the generation of gene-specific models, which after model tuning for maximal Q2 predictive power, provided explanation of the effectors ability to control the expression of individual genes, combinatorically, and individually. Solutions within the tested space could then be explored to address desirability.
This model was derived from initial testing of twelve factors including: HB-EGF, Optiferrin, SR1, knockout serum, ibuprofen, GM-CSF, holo-transferrin, EPO, eltrombopag, Neuregulin 1, THI0019 and AICAR.

[2] = tested on: erythroid progenitors from GATA1+ MEP cells; assay: Factor criticality analysis (dynamic profile), stage 2 recipe; assay type: cell-based, human; set-up: unit not given here
Method: (§1) To assess the impact of the elimination of each validated factor identified for the stage 1 and 2 recipes as described in Example 1, dynamic profile analysis was used and compared the expression level of genes of interest in absence of each finalized factor while others are present.
In the stage 2 recipe, each of the five finalized factors was removed while the other four factors remained present and the expression levels of GATA1, HBA1, GYPA (CD235) and TFRC were assessed compared to the presence of all five factors. When EPO was removed, the values of GATA1 decreased from 1386 to 736, the values of HBA1 changed from 700 to 285, the values of GYPA decreased from 345 to 61 and the values of TFRC dropped from 2943 to 898. All changes represent a significant loss of expression of a desired gene.

[3] = tested on: CD34+ population of cells isolated from cord blood; assay: HD-DoE 8-factor experiment optimized for maximum expression of GATA1 (stage 1); assay type: cell-based, human; settings: for factor contribution: 8-factor model optimized for maximum GATA1 expression, 3-day treatment
Method: The effector combinations were prepared in a basal media and were subsequently added to the cells, which were then allowed to differentiate. […] Solutions within the tested space could then be explored to address desirability.

[4] = tested on: MEP progenitor from CD34+ HSCs; assay: Factor criticality analysis (dynamic profile), stage 1 recipe; assay type: cell-based, human; set-up: unit not given here
Method: as §1
In the stage 1 recipe, each of the five finalized factors was removed while the other four factors remained present and the expression levels of GATA2, GATA1, CD36 and TFRC were assessed compared to the presence of all five factors.

[5] = tested on: HBA expression; assay: Refinement of stage 2 recipe: HBA expression modelling and cell number; assay type: cell-based, human; settings: higher concentration: holo-transferrin 600 ug/mL, EPO 4 U/mL; or supplement added
Method: In order to refine the stage 2 recipe, more modelling experiments were conducted using the same factors as the stage 2 recipe but testing different concentrations of critical factors such as EPO and holo-transferrin. Additionally, because lipid inputs are critical for RBC differentiation, a commercial cholesterol supplement (Sigma) was tested.

[6] = tested on: CD34 cells; assay: HD-DoE 6-factor experiment optimized for maximum expression of GATA1; assay type: cell-based, human
Method: To test whether EPO or other commonly used cytokines are required for GATA1 induction, we conducted experiments with 6 factors in a range of concentrations. On this experiment CD34 cells were thawed and kept overnight in media containing SCF 10 ng/mL. On the next day, 48 different combinations of effectors were added to the cells, and SCF 5 ng/mL was kept in all the wells.

[7] = named factor removed, other four present

Question: What does the source list for `NC(=O)c1ncn([C@@H]2O[C@H](CO)[C@@H](O)[C@H]2O)c1N` [AICAR, reference compound]?
Answer: factor contribution [1]: 9; GYPA expression ([2]; all five factors present): 337; HBA1 expression ([2]; all five factors present): 689; GYPA expression [2, 7]: 256; HBA1 expression [2, 7]: 569

Question: What does the source list for `C=C1C(=O)O[C@@H]2C[C@@]3(C)CCC[C@H](C)C3=C[C@H]12` [Alantolactone]?
Answer: factor contribution [3]: 8; impact on GATA1 expression ([3]; 8-factor model, GATA1): supportive of GATA1 induction; GATA1 expression ([4]; all five factors present): 510; GATA1 expression [4, 7]: 460

Question: Which results are given for `NC1(c2ccc(-c3nc4ccn5c(=O)[nH]nc5c4cc3-c3ccccc3)cc2)CCC1` [MK2206]?
Answer: factor contribution [3]: 17; GATA1 expression ([4]; all five factors present): 510; GATA1 expression [4, 7]: 400

Question: For `CC(C)n1cnc2c(NCCc3ccc(O)cc3)nc(-c3csc4ccccc34)nc21` [SR1], which factor contribution [3] is on record?
Answer: 6

Question: And the factor contribution [1]?
Answer: 7

Question: And the HBA1 expression ([2]; all five factors present)?
Answer: 700

Question: What about the HBA1 expression [2, 7] of the same molecule?
Answer: 597

Question: And the GATA1 expression ([4]; all five factors present)?
Answer: 510

Question: And the TFRC expression ([4]; all five factors present)?
Answer: 970

Question: And the GATA1 expression [4, 7]?
Answer: 410

Question: What about the TFRC expression [4, 7] of the same molecule?
Answer: 570

Question: EPO: EPOR agonist, erythropoietin was tested. Which HBA expression [5] did it give?
Answer: higher HBA expression

Question: And the factor contribution [1]?
Answer: 31

Question: And the GATA1 expression ([2]; all five factors present)?
Answer: 1386

Question: And the GYPA expression ([2]; all five factors present)?
Answer: 345

Question: What about the HBA1 expression ([2]; all five factors present) of the same molecule?
Answer: 700

Question: And the TFRC expression ([2]; all five factors present)?
Answer: 2943

Question: And the GATA1 expression [2, 7]?
Answer: 736

Question: What about the GYPA expression [2, 7] of the same molecule?
Answer: 61

Question: What about the HBA1 expression [2, 7] of the same molecule?
Answer: 285

Question: And the TFRC expression [2, 7]?
Answer: 898

Question: What about the “requirement for GATA1 induction” value ([6]; 6-factor model) of the same molecule?
Answer: not required for GATA1 induction

Question: Which results are given for holotransferrin: Iron source?
Answer: HBA expression [5]: higher HBA expression; GATA1 expression ([2]; all five factors present): 1370; GYPA expression ([2]; all five factors present): 330; HBA1 expression ([2]; all five factors present): 688; TFRC expression ([2]; all five factors present): 2883; GATA1 expression [2, 7]: 967; GYPA expression [2, 7]: 170; HBA1 expression [2, 7]: 500; TFRC expression [2, 7]: 1703

B1: Activin A: a member of the TGFβ family (protein, UniProt P08476 311-426, looked up)
Inhibin beta A chain: GLECDGKVNICCKKQFFVSFKDIGWNDWIIAPSGYHANYCEGECPSHIAGTSGSSLSFHSTVINHYRMRGHSPFANLKSCCVPTKLRPMSMLYYDDGQNIIKKDIQNMIVEECGCS
Question: Which factor contribution ([6]; 6-factor model optimized for maximum GATA1 expression, SCF 5 ng/mL in all wells) does the source give for B1 here?
Answer: 33
